Experimental data as given in US20250250310A1, “COMBINATION THERAPY WITH ADP-RIBOSE BINDING PEPTIDE AND ADP-RIBOSE FOR PREVENTION OR TREATMENT OF CANCER” (PEARLSINMIRES CO., LTD., priority 2023, published 2025).
Where a SMILES comes first, the peptide text is derived from it. [ ]: non-standard residue; d: D form. The star is where a group is joined. Stearoyl = CCCCCCCCCCCCCCCCCC(=O)*; AEEA = NCCOCCOCC(=O)O

Key:
[1] = test system: Pancreatic cancer (AsPC-1) cells; assay: AsPC-1 cell viability (MTT), peptides and ADP-ribose alone or in combination; type: cell-based, human; conditions: treated groups vs untreated, ADPR 1 mM, peptide 25 μM, CPP-peptide 10 μM, 96 hours
Protocol: (§1) 2.5×10^3 Pancreatic cancer (AsPC-1) cells were cultured in a 96-well plate for 24 hours under 37° C. and 5% CO2 conditions, and then divided into the following groups and treated with each peptide according to Examples at GI50 concentration alone or in combination. • 1) Untreated group • 2) Group treated with ADPR at 1 mM concentration alone • 3) Group treated with peptide of Example 3 at 25 μM concentration alone • 4) Group treated with each CPP-peptide of Example 17 at 10 μM concentration alone • 5) Group treated in combination with ADPR at 1 mM concentration and peptide of Example 3 at 25 μM concentration (Combination 1) • 6) Group treated in combination with ADPR at 1 mM concentration and CPP-peptide of Example 17 at 10 μM concentration (Combination 2)
(§2) The cells were then cultured for another 96 hours under 37° C. and 5% CO2 conditions, and 10 μl of 3-(4,5-dimethylthiazol-2-yl)-2,5-diphenyltetrazolium bromide reagent was added to each well and reacted for 1 hour. The reagent was removed at the end of the reaction, 200 μl of dimethyl sulfoxide was then added to each well, and the absorbance was measured to determine the cell viability.

[2] = test system: Liver cancer (HepG2) cells; assay: HepG2 cell viability (MTT), peptides and ADP-ribose alone or in combination; type: cell-based, human; conditions: treated groups vs untreated, ADPR 1 mM, peptide 25 μM, CPP-peptide 10 μM, 96 hours
Protocol: as §1, with “2.5×10^3 Liver” for “2.5×10^3 Pancreatic”, “cancer (HepG2)” for “cancer (AsPC-1)”, “Example 4” for “Example 3”, “Example 18” for “Example 17”
as §2

[3] = test system: Kidney cancer (Caki-1) cells; assay: Caki-1 cell viability (MTT), peptides and ADP-ribose alone or in combination; type: cell-based, human; conditions: treated groups vs untreated, ADPR 1 mM, peptide 25 μM, CPP-peptide 10 μM, 96 hours
Protocol: as §1, with “2.5×10^3 Kidney” for “2.5×10^3 Pancreatic”, “cancer (Caki-1)” for “cancer (AsPC-1)”, “Example 1” for “Example 3”, “Example 15” for “Example 17”
as §2

[4] = test system: Breast cancer (HCC1937) cells; assay: HCC1937 cell viability (MTT), peptides and ADP-ribose alone or in combination; type: cell-based, human; conditions: treated groups vs untreated, ADPR 1 mM, peptide 25 μM, CPP-peptide 10 μM, 96 hours
Protocol: as §1, with “2.5×10^3 Breast” for “2.5×10^3 Pancreatic”, “cancer (HCC1937)” for “cancer (AsPC-1)”, “Example 2” for “Example 3”, “Example 16” for “Example 17”
as §2

[5] = test system: Lung cancer (H1975) cells; assay: H1975 cell viability (MTT), peptides and ADP-ribose alone or in combination; type: cell-based, human; conditions: treated groups vs untreated, ADPR 1 mM, peptide 25 μM, CPP-peptide 10 μM, 96 hours
Protocol: as §1, with “2.5×10^3 Lung” for “2.5×10^3 Pancreatic”, “cancer (H1975)” for “cancer (AsPC-1)”, “Example 5” for “Example 3”, “Example 19” for “Example 17”
as §2

[6] = test system: PARP inhibitor-resistant breast cancer (HCC1937) cells; assay: Cell viability (MTT) in PARP inhibitor-resistant cancer cell line; type: cell-based, human; conditions: 96 hours
Protocol: Specifically, 2.5×10^3 PARP inhibitor-resistant breast cancer (HCC1937) cells were cultured in a 96-well plate for 24 hours under 37° C. and 5% CO2 conditions.
The cells were then divided into the following groups and treated with each peptide according to Examples at GI50 concentration alone or in combination. • 1) Untreated group • 2) Group treated with PARP inhibitor (Olaparib) at 2 μM concentration • 3) Group treated with ADPR at 1 mM concentration alone • 4) Groups treated with each peptide of Examples 1 to 6 at 25 μM concentration alone • 5) Groups treated with each CPP-peptide of Examples 15 to 20 at 10 μM concentration alone • 6) Group treated in combination with ADPR at 1 mM concentration and each peptide of Examples 1 to 6 at 25 μM concentration (Combination 1) • 6) Group treated in combination with ADPR at 1 mM concentration and CPP-peptide of Examples 15 to 20 at 10 μM concentration (Combination 2)
as §2

MDA-MB-231 cancer cells = assay: MDA-MB-231 cell viability (MTT), sustained release derivative alone or in combination; type: cell-based; conditions: 96 hours
Protocol: Each of 2.5×10^3 human-derived pancreatic cancer (Aspc-1), kidney cancer (Caki-1), breast cancer (HCC1937), liver cancer (HepG2), lung cancer (H1975), colon cancer (HCT116), ovarian cancer (OVCAR-3), brain cancer (U87) cells were cultured in a 96-well plate under 37° C. and 5% CO2 conditions for 24 hours, and then treated with the sustained release derivative alone. In addition, MDA-MB-231 cancer cells were divided into the following groups and treated with each formulation at GI20 concentration alone or in combination. • 1) Untreated group • 2) Group treated with sustained-release derivative alone at 5 μM concentration • 3) Group treated with ADPR at 2 mM concentration alone • 4) Group treated with NAD^+ at 2 mM concentration alone • 5) Groups treated with various anti-cancer drugs alone (Cisplatin at 2 μM, Docetaxel at 1 μM, Dichloroacetate at 3 mM, Doxorubicin at 2 μM, Sorafenib at 2 μM, Osimertinib at 10 nM, Trastuzumab at 0.2 μM, Bevacizumab at 0.2 nM, Tamoxifen at 0.2 μM, or Olaparib at 1 μM) • 6) Group treated in combination with ADPR at 2 mM concentration and a sustained-release derivative at 5 μM concentration • 7) Group treated in combination with ADPR at 2 mM concentration, NAD^+ at 2 mM concentration, and a sustained-release derivative at 5 μM concentration • 8) Group treated in combination with ADPR at 2 mM concentration, a sustained-release derivative at 5 μM concentration, and various anti-cancer drugs (same concentration as Group 5 above).
as §2, with “at” for “under”, “CO2,” for “CO2 conditions,”

[7] = test system: Colon cancer (HCT116) cells; assay: HCT116 cell viability (MTT), peptides and ADP-ribose alone or in combination; type: cell-based, human; conditions: treated groups vs untreated, ADPR 1 mM, peptide 25 μM, CPP-peptide 10 μM, 96 hours
Protocol: as §1, with “2.5×10^3 Colon” for “2.5×10^3 Pancreatic”, “cancer (HCT116)” for “cancer (AsPC-1)”, “Example 6” for “Example 3”, “Example 20” for “Example 17”
as §2

[8] = test system: ovarian cancer (OVCAR-3) cells; assay: OVCAR-3 cell viability (MTT), peptides and NAD^+ alone or in combination; type: cell-based, human; conditions: NAD^+ 1 mM alone, 96 hours
Protocol: Specifically, 2.5×10^3 ovarian cancer (OVCAR-3) cells were cultured in a 96-well plate for 24 hours under 37° C. and 5% CO2 conditions, and then divided into the following groups and treated with each peptide according to Examples at GI50 concentration alone or in combination. • 1) Untreated group • 2) Group treated with NAD^+ at 1 mM concentration alone • 3) Group treated with peptide of Example 2 at 25 μM concentration alone • 4) Group treated with CPP-peptide of Example 16 at 10 μM concentration alone • 5) Group treated in combination with NAD^+ at 1 mM concentration and peptide of Example 2 at 25 μM concentration (Combination 1) • 6) Group treated in combination with NAD^+ at 1 mM concentration and CPP-peptide of Example 16 at 10 μM concentration (Combination 2)
as §2

[9] = Normal cytotoxicity of sustained release derivative alone or in combination (MTT); type: cell-based; conditions: human, MRC5 cells (normal), sustained-release derivative alone, read-out: viability of normal cells compared to the untreated group
Protocol: In a 96-well plate, 2.5×10^3 human-derived normal MRC5 cells were cultured for 24 hours under 37° C. and 5% CO2 conditions, and then treated with the sustained-release derivative and ADPR alone or in combination.
as §2, with “96 hours at 37° C.” for “96 hours under 37° C.”, “and 5% CO2, and 10” for “and 5% CO2 conditions, and 10”, “hour. The MTT reagent was” for “hour. The reagent was”

Nc1ncnc2c1ncn2[C@@H]1O[C@H](COP(=O)(O)OP(=O)(O)OC[C@H]2O[C@@H](O)C(O)C2O)C(O)C1O (some centres unmarked) [ADP-ribose]
cell viability [1]: viability was reduced | cell viability [2]: viability was reduced | cell viability [3]: viability was reduced | cell viability [4]: viability was reduced | cell viability [5]: viability was reduced | cell viability, single treatment ([6]; ADPR 1 mM, peptide 25 μM or CPP-peptide 10 μM alone): significantly reduced cell viability | cell viability (MDA-MB-231 cancer cells; single treatment (derivative 5 μM, ADPR 2 mM, NAD^+ 2 mM, anti-cancer drugs)): 80% | cell viability [7]: viability was reduced

NC(=O)c1ccc[n+]([C@@H]2O[C@H](COP(=O)(O)OP(=O)(O)OC[C@H]3O[C@@H](n4cnc5c(N)ncnc54)[C@H](O)[C@@H]3O)[C@@H](O)[C@H]2O)c1 [NAD^+, nicotinamide adenine dinucleotide]
viability at 2000 µM (MDA-MB-231 cancer cells; Homo sapiens, single treatment (derivative 5 μM, ADPR 2 mM, NAD^+ 2 mM, anti-cancer drugs)): 80% | cell growth / viability vs control group [8]: not significantly different from the control group

O=C(c1cc(Cc2n[nH]c(=O)c3ccccc23)ccc1F)N1CCN(C(=O)C2CC2)CC1 [Olaparib, reference compound]
viability at 2 µM ([6]; Homo sapiens, Olaparib 2 μM alone, read-out: cancer cells viable): ~80%

CCCCCCCCCCCCCCCCCC(=O)NCCCC[C@H](NC(=O)[C@H](CCCNC(=N)N)NC(=O)[C@H](CCCNC(=N)N)NC(=O)[C@H](CCCNC(=N)N)NC(=O)CNC(=O)[C@H](Cc1c[nH]cn1)NC(=O)[C@H](CCC(=O)O)NC(=O)[C@H](CC(N)=O)NC(=O)[C@H](CCCNC(=N)N)NC(=O)[C@H](CCCNC(=N)N)NC(=O)[C@H](Cc1ccc(O)cc1)NC(=O)[C@H](CCC(N)=O)NC(=O)[C@@H](NC(=O)[C@H](CCSC)NC(=O)[C@H](CC(N)=O)NC(=O)[C@H](CCC(=O)O)NC(=O)[C@H](CC(C)C)NC(=O)[C@H](CC(=O)O)NC(=O)[C@H](C)NC(=O)[C@@H](NC(=O)[C@H](Cc1ccc(O)cc1)NC(=O)[C@H](CC(C)C)NC(=O)[C@H](Cc1ccccc1)NC(=O)[C@H](CCC(N)=O)NC(=O)[C@@H]1CCCN1C(=O)[C@H](CCCNC(=N)N)NC(=O)[C@H](CCCNC(=N)N)NC(=O)[C@H](CCCNC(=N)N)NC(=O)[C@H](CCC(N)=O)NC(=O)[C@H](CCCNC(=N)N)NC(=O)[C@H](CCCNC(=N)N)NC(=O)[C@H](CCCCN)NC(=O)[C@H](CCCCN)NC(=O)[C@H](CCCNC(=N)N)NC(=O)CNC(=O)COCCOCCN)C(C)C)C(C)C)C(=O)N[C@H](C(=O)N[C@@H](CCCCN)C(=O)N[C@@H](CCCNC(=N)N)C(N)=O)[C@@H](C)CC [sustained-release derivative] (H-[AEEA]GRKKRRQRRRPQFLYVADLENMVQYRRNEHGRRRK(Stearoyl)IKR-NH2; C-terminus assumed)
cytotoxicity, triple-drug combination (MDA-MB-231 cancer cells; sustained-release derivative 5 μM + ADPR 2 mM + NAD^+ 2 mM or various anti-cancer drugs): significantly superior cytotoxicity | cytotoxicity, combination with ADPR (MDA-MB-231 cancer cells; sustained-release derivative 5 μM + ADPR 2 mM): showed cytotoxicity | viability at 96 h [9]: ≥ 90%
